From US9676708B2 (The Johns Hopkins University, priority 2012, dated 2017)
Structures can show the parent of a compound that is named as a salt. Where two headings read alike, the source gives them in different places.

Legend:
[1] = pH 7.4; see U.S. Pat. No. 8,030,356; cited from earlier work
[2] = HNO yield from N2O headspace analysis after complete decomposition, compared to 2BrPA; format: physicochemical; conditions: for % HNO: 37° C. in PBS (pH 7.4), N2O headspace analysis, reported in comparison to 2BrPA (SEM 5%; n = 3); for HNO production compared to 2BrPA: in words; for HNO yield: of the amount of HNO from 2BrPA
Description: As used herein, a compound is a “nitroxyl donor” if it donates nitroxyl under physiological conditions. As used herein, the presently disclosed nitroxyl donors alternatively may be referred to as “a compound” or “the compound.” Preferably, the nitroxyl donor is capable of donating an effective amount of nitroxyl in vivo and has a safety profile indicating the compound would be tolerated by an individual in the amount necessary to achieve a therapeutic effect. One of ordinary skill in the art would be able to determine the safety of administering particular compounds and dosages to live subjects. One of skill in the art also may determine whether a compound is a nitroxyl donor by evaluating whether it releases HNO under physiological conditions. Compounds are easily tested for nitroxyl donation with routine experiments. Although it is impractical to directly measure whether nitroxyl is donated, several tests are accepted for determining whether a compound donates nitroxyl. For example, the compound of interest can be placed in solution, for example in water, in a sealed container. After sufficient time for disassociation has elapsed, such as from several minutes to several hours, the headspace gas is withdrawn and analyzed to determine its composition, such as by gas chromatography and/or mass spectroscopy. If the gas N2O is formed (which occurs by HNO dimerization), the test is positive for nitroxyl donation and the compound is a nitroxyl donor. The level of nitroxyl-donating ability may be expressed as a percentage of a compound's theoretical maximum. A compound that donates a “significant level of nitroxyl” intends a compound that donates 40% or more or 50% or more of its theoretical maximum amount of nitroxyl. In one variation, the compounds for use herein donate 60% or more of the theoretical maximum amount of nitroxyl. In another variation, the compounds for use herein donate 70% or more of the theoretical maximum amount of nitroxyl. In another variation, the compounds for use herein donate 80% or more of the theoretical maximum amount of nitroxyl. In another variation, the compounds for use herein donate 90% or more of the theoretical maximum amount of nitroxyl. In yet another variation, the compounds for use herein donate between about 70% and about 90% of the theoretical maximum amount of nitroxyl. In yet another variation, the compounds for use herein donate between about 85% and about 95% of the theoretical maximum amount of nitroxyl. In yet another variation, the compounds for use herein donate between about 90% and about 95% of the theoretical maximum amount of nitroxyl.

[3] = Decomposition of 2-bromo-benzenesulfonamidyl-alkylamino carbonates 2 (2BrPA release) in PBS, UV/vis or HPLC; format: physicochemical
Protocol: The donor 2BrPA produces HNO in high yield at pH 7.4 with a single defined half-life of approximately 2 minutes. See U.S. Pat. No. 8,030,356, to Toscano et al., which is incorporated herein by reference in its entirety. Changing (R) on the trigger amine or the spacer length (n) in 2 makes it possible to tune the effective HNO production rate through controlled 2BrPA release (Table 2). Donors 2, with release rates slower than the half-life of 2BrPA, produce HNO at the rate of cyclization. The decomposition products, rates, and HNO production were analyzed and compared to 2BrPA (Table 2).

[4] = Monitoring of 2d decomposition byproducts by NMR; format: physicochemical; conditions: decomposition of 2d
Description: The cyclized byproduct 3, expected from an HNO forming pathway, from 2d, formed in approximately 60% yield (Scheme 4). The yield of 3 is consistent with the yield of HNO detected (64%) (Table 2). The cyclized product 5 also was identified and formed in approximately 10% yield. Another byproduct formed in approximately 30% yield.

Row | SMILES | % HNO [2] [%] | HNO production compared to 2BrPA [2] | HNO yield [2] [%] | other results
1 | O=S(=O)(NO)c1ccccc1Br [2BrPA, N-hydroxy-2-bromobenzenesulfonamide] | – | – | – | HNO production [1]: high yield
2 | CNCCOC(=O)ONS(=O)(=O)c1ccccc1Br.Cl [Cmpd 2a, 2-Bromo-benzenesulfonamidyl-2-(methylamino)-ethyl carbonate hydrochlor-ide] | 93 | – | – | –
3 | Cl.O=C(OCCNCc1ccccc1)ONS(=O)(=O)c1ccccc1Br [Cmpd 2b, 2-Bromo-benzenesulfonamidyl-2-(benzylamino)-ethyl carbonate hydrochlori-de] | 99 | – | – | –
4 | CC(C)NCCOC(=O)ONS(=O)(=O)c1ccccc1Br [Cmpd 2c, 2-Bromo-benzenesulfonamidyl-2-(iso-propylamino)-ethyl carbonate hydroc-hloride] | 97 | – | – | half-life ([3]; PBS buffer, pH 7.4, text, fast-releasing derivatives (UV/vis values of Table 2), PBS buffer, read-out: half-life): < 60 s; half-life ([3]; PBS, pH 7.4, 37° C. in PBS (pH 7.4), determined by UV/vis (SEM ± 5%; n = 3), read-out: t1/2 (converted)): 47 s
5 | CC(C)(C)NCCOC(=O)ONS(=O)(=O)c1ccccc1Br [Cmpd 2d, 2-Bromo-benzenesulfonamidyl-2-(tert-butylamino)-ethyl carbonate hydrochl-oride] | 64 | significantly lower | 64 | yield of another byproduct [4]: approximately 30%; yield of cyclized byproduct 3 (HNO forming pathway) [4]: approximately 60%; yield of cyclized product 5 [4]: approximately 10%; half-life ([3]; PBS, pH 7.4, 37° C. in PBS (pH 7.4), determined by HPLC (SEM ± 5%; n = 3), read-out: t1/2 (converted)): 2820 s
6 | Cl.O=C(OCCNc1ccccc1)ONS(=O)(=O)c1ccccc1Br [Cmpd 2e, 2-Bromo-benzenesulfonamidyl-2-(phenylamino)-ethyl carbonate hydrochlo-ride] | 91 | – | – | –
7 | CC(C)NCCCOC(=O)ONS(=O)(=O)c1ccccc1Br.Cl [Cmpd 2h, 2-Bromo-benzenesulfonamidyl-3-(iso-propylamino)-propyl carbonate hydro-chloride] | 30 | significantly lower | 30 | –
8 | COc1ccc(NCCOC(=O)ONS(=O)(=O)c2ccccc2Br)cc1 [hydrochloride] | 93 | – | – | half-life ([3]; 37° C. in PBS (pH 7.4), determined by UV/vis (SEM ± 5%; n = 3), read-out: t1/2 (converted)): 50 s; half-life ([3]; pH 7.4, fast-releasing derivatives (UV/vis values of Table 2), PBS buffer, read-out: half-life): 48 s
9 | O=C(OCCNc1ccc(Cl)cc1)ONS(=O)(=O)c1ccccc1Br [hydrochloride] | 69 | significantly lower | 69 | half-life ([3]; PBS, pH 7.4, slow-releasing derivatives (HPLC values of Table 2), read-out: half-life): 3000 s
